Assay [1] concerns IL-17A-induced G-CSF production in human normal keratinocyte (NHK). Description: NHK assay: IL-17A-induced G-CSF production in normal human keratinocytes. It counts as cell-based. The conditions noted are these: Homo sapiens, Keratinocyte, 24 h, IL-17A 5 ng/mL, class of the average IC50 where tested more than once. In a few lines: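 Adult keratinocytes at 3000-4000 cells/well; recombinant human IL-17A pre-incubated 1 h at rt with titrated compound, then added to cells (final 5 ng/mL IL-17A, 0.2% DMSO, 5% FBS) for 24 h at 37 °C. Supernatant G-CSF quantified by HTRF against a standard curve to give IC50; viability checked by CellTiter-Glo versus DMSO.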

Assay [2] addresses IL-17A(FLAG-tagged): IL-17RA(His-tagged) (Homo sapiens, UniProt Q16552, K93Q). Description: IL-17A(FLAG-tagged): IL-17RA(His-tagged) binding disruption Eu-HTRF assay. Conditions: class of the average IC50 where tested more than once. The text has this:
IL-17A(FLAG-tagged): IL-17RA(His-tagged) binding disruption Eu-HTRF assay An antibody directed against the FLAG tag of IL-17A (SEQ ID NO: 1) is labeled with the HTRF donor chromophore (Europium-cryptate). IL-17A is present as a dimer that is “locked into” this quaternary structure due to the formation of loop-spanning intramolecular disulfide bridges. The construct of IL-17RA used in the assay excludes the […] portion of the receptor and is fused to a C-terminal 10×His tag (SEQ ID NO:2). An antibody directed against the His tag of the IL-17RA chimera is labeled with the HTRF acceptor chromophore (“D2”). The fluorescence-resonance energy transfer (FRET) depends on the vicinity of the donor chromophore to the acceptor, and interruption of the binding between the IL-17A and IL-17RA causes the reduction/loss of FRET. Therefore, this assay allows to evaluate the compound effect on the binding IL-17A and IL-17RA by monitoring the fluorescence intensity of donor vs acceptor. The assay is run as described below.
40 nl of 2-fold serial diluted compound solution for total 22 dilution points is added into each well of a 1536-well, white, low-volume, non-binding plate (Greiner #782904), then 2 μl of FLAG tagged IL-17A at 2× final concentration (1 μM) in solution of PBS+0.01% Triton-X100 is added to each well. The assay plate is briefly centrifuged then incubated for 1 h at rt. A mixed solution is prepared containing 2×5 nM 10HIS×IL-17RA, 2×2.5 nM Eu-anti-FLAG (CISBIO), 2×5 nM D2-anti-HIS (CISBIO) in PBS+0.01% Triton-X100+200 mM Potassium Fluoride (Sigma 60238) and 2 μl of mix is added to each well of the assay plate. The plate is briefly centrifuged then incubated for 2 h at rt. The HTRF intensities at the wavelength of donor (615 nm) and acceptor (665 nm) are measured using BMG Pherastar. The ratio between intensities at two wavelengths is calculated and plotted against the compound concentration and the data is fitted to a one-site competition model to yield IC50 of the compound.
A general note: TR-FRET usually uses a lanthanide donor and a delayed reading to cut background.

These results are taken from patent US20260258048A1, “LACTAM-CONTAINING IMIDAZOPYRIDAZINE IL-17 INHIBITOR COMPOUNDS” (Janssen Pharmaceutica NV, priority 2023, published 2026).

Sequence of UniProt Q16552 (Q16552 with tags, fused parts or gaps K93Q): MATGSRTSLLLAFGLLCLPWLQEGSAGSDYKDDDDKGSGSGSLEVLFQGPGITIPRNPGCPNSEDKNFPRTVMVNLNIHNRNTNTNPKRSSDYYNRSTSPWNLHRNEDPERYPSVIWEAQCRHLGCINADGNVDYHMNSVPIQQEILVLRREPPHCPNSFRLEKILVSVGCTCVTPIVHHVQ

Usually IC50 stands for the concentration that gives 50% inhibition. The low end stands for inhibition by little substance, the high end for a need for much substance. Turning to `C[C@H](c1cnn2cc([C@@H](NC(=O)c3nonc3C3CC3)C3CCC(F)(F)CC3)nc2c1)[C@H]1C[C@@H](C(F)(F)F)NC1=O` (relative stereo) [Example 79, 4-Cyclopropyl-N—((S)-(4,4-difluorocyclohexyl)(7-((S*)—1-((3R*,5S)-2-oxo-5-(trifluoromethyl)pyrrolidin-3-yl)ethyl)imidazo[1,2-b]pyridazin-2-yl)methyl)-1,2,5-oxadiazole-3-carboxamide], the IC50 in assay [1] and in assay [2] was under 400 nM in each case.
Take `C[C@H](c1cnn2cc([C@@H](NC(=O)c3nonc3C3CC3)C3CCC(F)(F)CC3)nc2c1)[C@@H]1C[C@@H](C(F)(F)F)NC1=O` (relative stereo) [Example 81, 4-Cyclopropyl-N—((S)-(4,4-difluorocyclohexyl)(7-((S*)-1-((3S*,5S)-2-oxo-5-(trifluoromethyl)pyrrolidin-3-yl)ethyl)imidazo[1,2-b]pyridazin-2-yl)methyl)-1,2,5-oxadiazole-3-carboxamide]: the IC50 in assay [1] and in assay [2] was under 400 nM throughout.
On to `C[C@H]1C[C@@H](Cc2cnn3cc([C@@H](NC(=O)c4nonc4C4CC4)C4CCC(F)(F)CC4)nc3c2)C(=O)N1` (relative stereo) [Example 82, 4-Cyclopropyl-N—((S)-(4,4-difluorocyclohexyl)(7-(((3R*,5S*)-5-methyl-2-oxopyrrolidin-3-yl)methyl)imidazo[1,2-b]pyridazin-2-yl)methyl)-1,2,5-oxadiazole-3-carboxamide], for which the IC50 is over 4000 nM in assay [1] and 400 to 4000 nM in assay [2].
On to `C[C@H]1C[C@H](Cc2cnn3cc([C@@H](NC(=O)c4nonc4C4CC4)C4CCC(F)(F)CC4)nc3c2)C(=O)N1` (relative stereo) [Example 83, 4-Cyclopropyl-N—((S)-(4,4-difluorocyclohexyl)(7-(((3S*,5S*)-5-methyl-2-oxopyrrolidin-3-yl)methyl)imidazo[1,2-b]pyridazin-2-yl)methyl)-1,2,5-oxadiazole-3-carboxamide], for which the IC50 in assay [1] and in assay [2] was under 400 nM each time.
On to `C[C@@H]1C[C@H](Cc2cnn3cc([C@@H](NC(=O)c4nonc4C4CC4)C4CCC(F)(F)CC4)nc3c2)C(=O)N1` (relative stereo) [Example 85, 4-Cyclopropyl-N—((S)-(4,4-difluorocyclohexyl(7-(((3S*,5R*)-5-methyl-2-oxopyrrolidin-3-yl)methyl)imidazo[1,2-b]pyridazin-2-yl)methyl)-1,2,5-oxadiazole-3-carboxamide], for which the values for the IC50 in assay [1] and in assay [2] were over 4000 nM and 400 to 4000 nM, respectively.
As for `C[C@H]1CNC(=O)[C@H]1Cc1cnn2cc([C@@H](NC(=O)c3nonc3C3CC3)C3CCC(F)(F)CC3)nc2c1` (relative stereo) [Example 86, 4-Cyclopropyl-N—[(S)-(4,4-difluorocyclohexyl)-[7-[[(3S*,4R*)-4-methyl-2-oxo-pyrrolidin-3-yl]methyl]imidazo[1,2-b]pyridazin-2-yl]methyl]-1,2,5-oxadiazole-3-carboxamide], the IC50 is over 4000 nM in assay [1] and 400 to 4000 nM in assay [2].
For `C[C@@H]1CNC(=O)[C@@H]1Cc1cnn2cc([C@@H](NC(=O)c3nonc3C3CC3)C3CCC(F)(F)CC3)nc2c1` (relative stereo) [Example 88, 4-Cyclopropyl-N—[(S)-(4,4-difluorocyclohexyl)-[7-[[(3R*,4S*)-4-methyl-2-oxo-pyrrolidin-3-yl]methyl]imidazo[1,2-b]pyridazin-2-yl]methyl]-1,2,5-oxadiazole-3-carboxamide], in that order: over 4000 nM and 400 to 4000 nM.
For `CC[C@@H]1C[C@H](Cc2cnn3cc([C@@H](NC(=O)c4nonc4C4CC4)C4CCC(F)(F)CC4)nc3c2)C(=O)N1` (relative stereo) [Example 89, 4-Cyclopropyl-N—[(S)-(4,4-difluorocyclohexyl)-[7-[[(3S*,5R*)-5-ethyl-2-oxo-pyrrolidin-3-yl]methyl]imidazo[1,2-b]pyridazin-2-yl]methyl]-1,2,5-oxadiazole-3-carboxamide], in that order: over 4000 nM and under 400 nM.
In the case of `CC(C)[C@H]1C[C@H](Cc2cnn3cc([C@@H](NC(=O)c4nonc4C4CC4)C4CCC(F)(F)CC4)nc3c2)C(=O)N1` (relative stereo) [Example 93, 4-Cyclopropyl-N—[(S)-(4,4-difluorocyclohexyl)-[7-[[(3S*,5R*)-5-isopropyl-2-oxo-pyrrolidin-3-yl]methyl]imidazo[1,2-b]pyridazin-2-yl]methyl]-1,2,5-oxadiazole-3-carboxamide], the half-maximal inhibitory concentration (IC50) in assay [1] and in assay [2] was 400 to 4000 nM each time.
Regarding `CC(C)[C@H]1C[C@@H](Cc2cnn3cc([C@@H](NC(=O)c4nonc4C4CC4)C4CCC(F)(F)CC4)nc3c2)C(=O)N1` (relative stereo) [Example 94, 4-Cyclopropyl-N—[(S)-(4,4-difluorocyclohexyl)-[7-[[(3R*,5R*)-5-isopropyl-2-oxo-pyrrolidin-3-yl]methyl]imidazo[1,2-b]pyridazin-2-yl]methyl]-1,2,5-oxadiazole-3-carboxamide], the IC50 in assay [1] and in assay [2] was under 400 nM throughout.
On to `CC(C)[C@@H]1C[C@@H](Cc2cnn3cc([C@@H](NC(=O)c4nonc4C4CC4)C4CCC(F)(F)CC4)nc3c2)C(=O)N1` (relative stereo) [Example 95, 4-Cyclopropyl-N—[(S)-(4,4-difluorocyclohexyl)-[7-[[(3R*,5S*)-5-isopropyl-2-oxo-pyrrolidin-3-yl]methyl]imidazo[1,2-b]pyridazin-2-yl]methyl]-1,2,5-oxadiazole-3-carboxamide], for which the IC50 is over 4000 nM in assay [1] and 400 to 4000 nM in assay [2].
Consider `CC(C)[C@@H]1C[C@H](Cc2cnn3cc([C@@H](NC(=O)c4nonc4C4CC4)C4CCC(F)(F)CC4)nc3c2)C(=O)N1` (relative stereo) [Example 96, 4-Cyclopropyl-N—[(S)-(4,4-difluorocyclohexyl)-[7-[[(3S*,5S*)-5-isopropyl-2-oxo-pyrrolidin-3-yl]methyl]imidazo[1,2-b]pyridazin-2-yl]methyl]-1,2,5-oxadiazole-3-carboxamide], for which the IC50 in assay [1] and in assay [2] was over 4000 nM each time.
For the compound `O=C(N[C@H](c1cn2ncc(C[C@@H]3C(=O)NC[C@H]3C(F)(F)F)cc2n1)C1CCC(F)(F)CC1)c1nonc1C1CC1` (relative stereo) [Example 100, 4-Cyclopropyl-N—[(S)-(4,4-difluorocyclohexyl)-[7-[[(3S*,4S*)-2-oxo-4-(trifluoromethyl)pyrrolidin-3-yl]methyl]imidazo[1,2-b]pyridazin-2-yl]methyl]-1,2,5-oxadiazole-3-carboxamide], the IC50 in assay [1] is over 4000 nM; in assay [2], 400 to 4000 nM.
Take `O=C(N[C@H](c1cn2ncc(C[C@H]3C(=O)NC[C@@H]3C(F)(F)F)cc2n1)C1CCC(F)(F)CC1)c1nonc1C1CC1` (relative stereo) [Example 101, 4-Cyclopropyl-N—[(S)-(4,4-difluorocyclohexyl)-[7-[[(3R*,4R*)-2-oxo-4-(trifluoromethyl)pyrrolidin-3-yl]methyl]imidazo[1,2-b]pyridazin-2-yl]methyl]-1,2,5-oxadiazole-3-carboxamide]: the IC50 in assay [1] and in assay [2] was 400 to 4000 nM throughout.
